Results reported in publication PMC8886686 (Journal of Inorganic Biochemistry, 2022).

Legend:
SARS-CoV-2 PLpro [1] = biological target: T1, SARS-CoV-2 PLpro (Severe acute respiratory syndrome coronavirus 2, UniProt P0DTD1); type: biochemical; details: 1 μM PLpro
SARS-CoV-2 3CLpro [2] = biological target: T2, SARS-CoV-2 3CLpro (Severe acute respiratory syndrome coronavirus 2, UniProt P0DTD1); type: biochemical
SARS-CoV-2 PLpro [3] = biological target: T1, SARS-CoV-2 PLpro; type: binding; details: 50 μM metal ion
SARS-CoV-2 3CLpro [4] = biological target: T2, SARS-CoV-2 3CLpro; type: binding; details: 50 μM metal ion
SARS-CoV-2 WT-PLpro = SARS-CoV-2 WT-PLpro (Severe acute respiratory syndrome coronavirus 2, UniProt P0DTD1); assay: Zn2+ content determination by ICP-MS, PLpro; type: binding
SARS-CoV-2 WT-3CLpro = SARS-CoV-2 WT-3CLpro (Severe acute respiratory syndrome coronavirus 2, UniProt P0DTD1); assay: Zn2+ content determination by ICP-MS, 3CLpro; type: binding
SARS-CoV-2 PLpro [5] = biological target: T1, SARS-CoV-2 PLpro; type: binding
SARS-CoV-2 3CLpro [6] = biological target: T2, SARS-CoV-2 3CLpro; type: binding
SARS-CoV-2 PLpro [7] = biological target: T1, SARS-CoV-2 PLpro; assay: PLpro deubiquitination assay with ubiquitin-AMC substrate; type: biochemical

Q: How did the “inhibition of the proteolytic activity of PLpro” value (SARS-CoV-2 PLpro [1]; 50 μM metal ion) turn out when `O=C([O-])[C@H](O)[C@@H](O)[C@H](O)[C@H](O)CO.O=C([O-])[C@H](O)[C@@H](O)[C@H](O)[C@H](O)CO.[Zn+2]` [Zn^2+, zinc gluconate] was run?
A: 98%

Q: What about the IC50 (SARS-CoV-2 PLpro [1]; read-out: IC50, PLpro activity, 20 μM peptide substrate) of the same molecule?
A: 0.53 ± 0.04 µM

Q: What about the “inhibition of the proteolytic activity of 3CLpro” value (SARS-CoV-2 3CLpro [2]; 50 μM metal ion, 0.5 μM 3CLpro) of the same molecule?
A: 97.6%

Q: And the IC50 (SARS-CoV-2 3CLpro [2]; read-out: IC50, 3CLpro activity, 0.5 μM WT-3CLpro, 10 μM substrate)?
A: 0.54 ± 0.04 µM

Q: What about the “effect on melting temperature of PLpro” value (SARS-CoV-2 PLpro [3]) of the same molecule?
A: most potent metal ion to decrease the melting temperatures

Q: And the “effect on melting temperature of 3CLpro” value (SARS-CoV-2 3CLpro [4])?
A: most potent metal ion to decrease the melting temperatures

Q: What about the “Zn2+ binding capacity per PLpro monomer (ICP-MS)” value (SARS-CoV-2 WT-PLpro) of the same molecule?
A: 1.90 ± 0.01 eq.

Q: What about the “Zn2+ binding capacity of 3CLpro monomer (ICP-MS)” value (SARS-CoV-2 WT-3CLpro) of the same molecule?
A: 1.24 ± 0.01 eq.

Q: What about the “Zn2+ bound to PLpro (ITC stoichiometry)” value (SARS-CoV-2 PLpro [5]) of the same molecule?
A: 1.23 ± 0.01 eq.

Q: And the Kd (SARS-CoV-2 PLpro [5]; read-out: dissociation constant (KD), PLpro)?
A: 2.17 ± 0.36 µM

Q: And the “Zn2+ bound to 3CLpro monomer (ITC stoichiometry)” value (SARS-CoV-2 3CLpro [6])?
A: 0.79 ± 0.01 eq.

Q: And the Kd (SARS-CoV-2 3CLpro [6]; read-out: dissociation constant (KD), 3CLpro (monomer))?
A: 4.08 ± 0.66 µM

Q: And the “inhibition of PLpro deubiquitination activity” value (SARS-CoV-2 PLpro [7])?
A: 95.7%
